#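 In this assay, cells in 96-well plates receive the compound at five concentrations for 48 hours. Endpoints are linearly interpolated between the surrounding concentrations. GI50 marks 50% less growth.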 Activity calls are given as the source filed them. No stated cut-off is given here; in the data, active = GI50 up to about 1.1 µM and inactive = higher.
# Columns and labels:
# Test in all cases: DTP human tumour cell line panel, 48 h
# A549 = test system: A549
# HCT-116 = test system: HCT-116
# OVCAR-8 = test system: OVCAR-8
# MOLT-4 = test system: MOLT-4
# HCT-15 = test system: HCT-15
# OVCAR-3 = test system: OVCAR-3
# CAKI-1 = test system: CAKI-1
# CCRF-CEM = test system: CCRF-CEM
# SF-539 = test system: SF-539
# SF-268 = test system: SF-268
# KM12 = test system: KM12
# LOX IMVI = test system: LOX IMVI
# NCI-H460 = test system: NCI-H460
# RXF 393 = test system: RXF 393
# SNB-19 = test system: SNB-19
# SK-MEL-5 = test system: SK-MEL-5
# Hs-578T = test system: Hs-578T
# ACHN = test system: ACHN
# SW-620 = test system: SW-620
# TK-10 = test system: TK-10
# RPMI-8226 = test system: RPMI-8226
# K562 = test system: K562
# IGROV-1 = test system: IGROV-1
# SNB-75 = test system: SNB-75
# COLO 205 = test system: COLO 205
# HT-29 = test system: HT-29
# T47D = test system: T47D
# U-251 = test system: U-251
# DU-145 = test system: DU-145
# MCF7 = test system: MCF7
# EKVX = test system: EKVX
# HOP-92 = test system: HOP-92
# MDA-N = test system: MDA-N
# MDA-MB-231 = test system: MDA-MB-231
# NCI-H226 = test system: NCI-H226
# HCC 2998 = test system: HCC 2998
# A498 = test system: A498
# SF-295 = test system: SF-295
# PC-3 = test system: PC-3
# UO-31 = test system: UO-31
# MDA-MB-435 = test system: MDA-MB-435
# HOP-62 = test system: HOP-62
# UACC-62 = test system: UACC-62
# M14 = test system: M14
# NCI/ADR-RES = test system: NCI/ADR-RES
# BT-549 = test system: BT-549
# OVCAR-4 = test system: OVCAR-4
# 786-0 = test system: 786-0
# SK-MEL-2 = test system: SK-MEL-2
# UACC-257 = test system: UACC-257
# SN12C = test system: SN12C
# SK-OV-3 = test system: SK-OV-3
# SK-MEL-28 = test system: SK-MEL-28
# NCI-H23 = test system: NCI-H23
# HL-60 = test system: HL-60
# OVCAR-5 = test system: OVCAR-5
compound,measurement,setting,value
CC(C)=CCC/C(C)=C/CC/C(C)=C/CSc1ccccc1C(=O)O [SALIRASIB],GI50,A549,20.7 µM (inactive)
same,GI50,HCT-116,16.7 µM (inactive)
same,GI50,OVCAR-8,17.4 µM (inactive)
same,GI50,MOLT-4,23.5 µM (inactive)
same,GI50,HCT-15,14.7 µM
same,GI50,OVCAR-3,16.5 µM (inactive)
same,GI50,CAKI-1,22.1 µM (inactive)
same,GI50,CCRF-CEM,28.3 µM (inactive)
same,GI50,SF-539,17.5 µM (inactive)
same,GI50,SF-268,16.6 µM (inactive)
same,GI50,KM12,17.6 µM (inactive)
same,GI50,LOX IMVI,19.5 µM (inactive)
same,GI50,NCI-H460,17.4 µM (inactive)
same,GI50,RXF 393,27.2 µM (inactive)
same,GI50,SNB-19,21 µM (inactive)
same,GI50,SK-MEL-5,14.8 µM (inactive)
same,GI50,Hs-578T,17.8 µM (inactive)
same,GI50,ACHN,37.7 µM (inactive)
same,GI50,SW-620,35.9 µM (inactive)
same,GI50,TK-10,28.4 µM (inactive)
same,GI50,RPMI-8226,32 µM (inactive)
same,GI50,K562,36.6 µM (inactive)
same,GI50,IGROV-1,16.5 µM (inactive)
same,GI50,SNB-75,19.1 µM (inactive)
same,GI50,COLO 205,23.6 µM (inactive)
same,GI50,HT-29,20.5 µM (inactive)
same,GI50,T47D,> 10 µM (inactive)
same,GI50,U-251,20.2 µM (inactive)
same,GI50,DU-145,18.2 µM (inactive)
same,GI50,MCF7,24.8 µM (inactive)
same,GI50,EKVX,18.4 µM (inactive)
same,GI50,HOP-92,25.9 µM (inactive)
same,GI50,MDA-N,22.3 µM (inactive)
same,GI50,MDA-MB-231,22.6 µM (inactive)
same,GI50,NCI-H226,23.5 µM (inactive)
same,GI50,HCC 2998,18 µM (inactive)
same,GI50,A498,23.7 µM (inactive)
same,GI50,SF-295,18.7 µM (inactive)
same,GI50,PC-3,19.3 µM (inactive)
same,GI50,UO-31,> 10 µM (inactive)
same,GI50,MDA-MB-435,20 µM (inactive)
same,GI50,HOP-62,16.9 µM (inactive)
same,GI50,UACC-62,17.7 µM (inactive)
same,GI50,M14,20.4 µM (inactive)
same,GI50,NCI/ADR-RES,22.5 µM (inactive)
same,GI50,BT-549,16.7 µM (inactive)
same,GI50,OVCAR-4,36.9 µM (inactive)
same,GI50,786-0,18.2 µM (inactive)
same,GI50,SK-MEL-2,14.4 µM (inactive)
same,GI50,UACC-257,34.8 µM (inactive)
same,GI50,SN12C,23.3 µM (inactive)
same,GI50,SK-OV-3,25.4 µM (inactive)
same,GI50,SK-MEL-28,21.1 µM (inactive)
same,GI50,NCI-H23,18.2 µM (inactive)
same,GI50,HL-60,29.7 µM (inactive)
same,GI50,OVCAR-5,19.2 µM (inactive)
